Laboratory results published in patent publication EP2151441A1, “Beta-carbolin-derivates as substrates for an enzyme” (Julius-Maximilians-Universität Würzburg, priority 2008, dated 2010).
Like-named read-outs stand apart in the source and are kept apart here.

Key:
CYP3A4 [1] = target: T1, CYP3A4 (Homo sapiens, UniProt P08684); conditions: cited from earlier work; for Km: according to US 6,207,404 (BFC, BzRes) or Walsky and Obach 2004 (Midazolam)
CYP3A4 [2] = target: T1, CYP3A4; assay: Determination of Km and Vmax of the CYP3A4-catalyzed O-dealkylation reaction (LC-MS quantification of reaction product 1b); type: biochemical; design: purchased BD Biosciences (Supersomes); conditions: Vmax comparison with BFC
Method: The Michaelis-Menten constant (Km) and the maximal reaction velocity (Vmax) are important parameters for inhibition assays. To determine the inhibitory activity of test compounds the substrate concentration in the assay should be about the Km value. […] After incubation for 20 minutes at 37°C the reaction product 1b was quantified using mass spectrometry after liquid chromatography. […] For the calculation of Km and Vmax the Sigma Plot 10.0 software with enzyme kinetic module (SPSS, Inc., Chicago, IL, USA) was used.

CYP2D6 = target: T2, CYP2D6 (Homo sapiens, UniProt P10635); assay: Catalytic activity of other CYP enzymes for the reaction of substance 1a; type: biochemical; conditions: 2 µM substance 1a, 15 pmol/ml CYP enzyme, Fig. 2
T2 construct: purchased BD Biosciences (Supersomes)
T2 sequence (P10635 whole entry): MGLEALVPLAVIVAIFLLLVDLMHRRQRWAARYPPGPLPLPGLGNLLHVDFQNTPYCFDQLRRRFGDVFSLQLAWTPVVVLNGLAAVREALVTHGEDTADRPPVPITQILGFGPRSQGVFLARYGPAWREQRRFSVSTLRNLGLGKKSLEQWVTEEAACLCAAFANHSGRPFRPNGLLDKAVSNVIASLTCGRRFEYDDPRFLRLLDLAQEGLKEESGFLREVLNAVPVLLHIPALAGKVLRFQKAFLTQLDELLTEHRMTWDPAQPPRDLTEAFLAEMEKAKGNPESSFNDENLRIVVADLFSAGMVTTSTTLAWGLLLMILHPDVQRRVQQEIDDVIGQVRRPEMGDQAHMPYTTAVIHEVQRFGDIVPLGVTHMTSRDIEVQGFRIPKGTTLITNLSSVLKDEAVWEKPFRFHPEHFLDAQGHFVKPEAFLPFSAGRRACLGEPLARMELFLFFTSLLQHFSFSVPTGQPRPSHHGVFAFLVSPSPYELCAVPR
Method: (§1) For the determination of the catalytic activity of other CYP-enzymes with respect to the reaction of substance 1a 2 µM of substance 1a were contacted with 15 pmol/ml CYP enzyme (Supersomes®, BD Biosciences) and 2 mM NADPH in 100 mM potassium phosphate puffer (pH 7.4; 3 mM MgCl2) with the exception of CYP3A4 that was used at a concentration of 5 pmol/ml.

CYP1B1 = target: T3, CYP1B1 (Homo sapiens, UniProt Q16678); assay: as above; type: biochemical; conditions: 2 µM substance 1a, 15 pmol/ml CYP enzyme, Fig. 2
T3 construct: purchased BD Biosciences (Supersomes)
T3 sequence (Q16678 1-543): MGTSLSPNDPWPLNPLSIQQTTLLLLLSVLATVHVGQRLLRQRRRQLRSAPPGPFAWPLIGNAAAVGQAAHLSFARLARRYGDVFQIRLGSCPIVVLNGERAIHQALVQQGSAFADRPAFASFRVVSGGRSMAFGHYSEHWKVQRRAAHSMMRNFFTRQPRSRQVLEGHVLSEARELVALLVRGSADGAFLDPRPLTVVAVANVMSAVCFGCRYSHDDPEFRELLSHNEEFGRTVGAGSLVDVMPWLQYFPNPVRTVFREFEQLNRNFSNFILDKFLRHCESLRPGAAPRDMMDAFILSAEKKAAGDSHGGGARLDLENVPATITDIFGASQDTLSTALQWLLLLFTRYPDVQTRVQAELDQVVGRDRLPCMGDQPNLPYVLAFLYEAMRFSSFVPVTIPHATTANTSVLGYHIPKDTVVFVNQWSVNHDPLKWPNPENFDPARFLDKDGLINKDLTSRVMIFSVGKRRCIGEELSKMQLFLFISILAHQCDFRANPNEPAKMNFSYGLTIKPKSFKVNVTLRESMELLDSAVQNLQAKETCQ
Method: as §1

recombinant human CPY3A4 = target: T4, recombinant human CPY3A4 (Homo sapiens, UniProt P08684); assay: Catalytic activity of CYP3A4 for the reaction with substance 1a; type: biochemical
T4 construct: purchased BD Biosciences (Supersomes)
T4 sequence (P08684 whole entry): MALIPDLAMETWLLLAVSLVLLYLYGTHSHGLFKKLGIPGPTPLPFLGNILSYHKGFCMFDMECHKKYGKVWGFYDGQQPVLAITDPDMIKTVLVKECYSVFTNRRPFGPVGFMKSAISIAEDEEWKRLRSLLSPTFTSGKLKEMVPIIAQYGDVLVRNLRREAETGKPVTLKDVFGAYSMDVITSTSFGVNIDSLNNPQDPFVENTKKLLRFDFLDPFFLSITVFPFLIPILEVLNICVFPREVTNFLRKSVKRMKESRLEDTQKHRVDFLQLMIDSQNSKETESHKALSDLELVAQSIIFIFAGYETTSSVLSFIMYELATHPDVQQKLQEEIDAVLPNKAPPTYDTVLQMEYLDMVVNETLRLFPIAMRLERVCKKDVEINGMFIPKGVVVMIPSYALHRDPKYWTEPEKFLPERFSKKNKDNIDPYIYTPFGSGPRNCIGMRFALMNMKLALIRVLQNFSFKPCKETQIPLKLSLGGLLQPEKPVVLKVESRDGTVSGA
Method: After incubation for 20 minutes at 37°C the metabolite 1b was quantified using liquid chromatography followed by mass spectrometry. For this reaction 4.5 pmol/min/pmol CYP3A4 could be determined as activity of the enzyme. According to US 6,207,404 the activity of CYP3A4 for the reaction of BFC at a concentration of 50 µM is about 1.5 pmol/min/pmol CYP3A4. […] For the determination of the catalytic activity of other CYP-enzymes with respect to the reaction of substance 1a 2 µM of substance 1a were contacted with 15 pmol/ml CYP enzyme (Supersomes®, BD Biosciences) and 2 mM NADPH in 100 mM potassium phosphate puffer (pH 7.4; 3 mM MgCl2) with the exception of CYP3A4 that was used at a concentration of 5 pmol/ml.

[3] = according to US 6,207,404 (BzRes) or Walsky and Obach 2004 (Midazolam)

T1 sequence (P08684 whole entry): as above

**Q.** Which results are given for O=c1cc(C(F)(F)F)c2ccc(OCc3ccccc3)cc2o1 [BFC, 7-benzyloxy-4-trifluoromethylcumarin]?
**A.** activity of CYP3A4 for the reaction of BFC (CYP3A4 [1]; BFC at a concentration of 50 µM, according to US 6,207,404): about 1.5 pmol/min/pmol CYP3A4; Km (CYP3A4 [1]): > 200 µM; Vmax (CYP3A4 [1]; at 40 µM BFC, according to US 6,207,404): 1.5 (at 40 µM BFC) pmol/min/pmol CYP3A4

**Q.** For O=c1ccc2nc3ccc(OCc4ccccc4)cc3oc-2c1 [BzRes, benzyloxyresorufin], which Km (CYP3A4 [1]) is on record?
**A.** 38 µM

**Q.** And the Vmax (CYP3A4 [1]; [3])?
**A.** 0.3 pmol/min/pmol CYP3A4

**Q.** Which Km (CYP3A4 [1]) does the source give for Cc1ncc2n1-c1ccc(Cl)cc1C(c1ccccc1F)=NC2 [Midazolam] here?
**A.** 0.6 µM

**Q.** What about the Vmax (CYP3A4 [1]; [3]) of the same compound?
**A.** 16.3 pmol/min/pmol CYP3A4

**Q.** For Cc1c2[nH]c3cc(OCc4ccccc4)ccc3c2cc[n+]1Cc1ccccc1.O=C([O-])C(F)(F)F [Substance 1a, 2-benzyl-7-benzyloxy-1-methyl-9H-pyrido[3,4-b]indol-2-ium trifluoroacetate salt], which “reaction velocity relative to BFC” value (CYP3A4 [2]) is on record?
**A.** about 5 fold

**Q.** And the “reaction of substrate 1a to reaction product 1b catalyzed by enzyme” value (“reaction of substrate 1a” below) (CYP2D6)?
**A.** could be catalyzed

**Q.** And the “reaction of substrate 1a” value (CYP1B1)?
**A.** could be catalyzed

**Q.** And the “activity of the enzyme relative to the reaction of BFC” value (recombinant human CPY3A4; 2 µM 1a versus 50 µM BFC)?
**A.** 3 fold

**Q.** And the “activity of the enzyme” value (recombinant human CPY3A4; 2 µM substance 1a, 5 pmol/ml CYP3A4, 2 mM NADPH, 20 minutes at 37°C)?
**A.** 4.5 pmol/min/pmol CYP3A4

**Q.** And the “reaction of substrate 1a” value (recombinant human CPY3A4; 2 µM substance 1a, CYP3A4 at 5 pmol/ml, Fig. 2)?
**A.** could be catalyzed
